# Measured values as given in patent US6208893A, “Electroporation apparatus with connective electrode template” (Genetronics, Inc., priority 1999, dated 2001).
# Read-outs that look alike come from different tables or passages of the source.
# Legend:
# PC-3 cells [1] = test: XTT cell proliferation assay, cytotoxicity on PC-3 cells with and without electroporation; settings: for cytotoxicity enhancement ratio: IC50 no electroporation vs with electroporation; for cytotoxic enhancement, rank order / cell susceptibility with electroporation: combined with electroporation
# Procedure: PC-3 cells (ATCC CRL-1435, a prostate cancer cell line) were grown in RPMI-1640 supplemented with 15% fetal calf serum (FCS) and 1% L-glutamine in 5% CO2 at 37° C. Cells in the exponential phase of growth were harvested by trypsinization and their viability was determined by trypan blue exclusion. Cell were suspended in culture medium at 2×10^5 cells/ml and seeded in the wells of a 96-well plate at a final concentration of 4×10^4 cells per well. Cells were pulsed using appropriate needle array electrodes connected to a square wave pulse generator. The needle array was inserted in the well of the 96 well microplate and pulsed using the following parameters:
# A cell survival curve was produced for the different electric fields.
# Methods, 142:2, 257-265, 1991). The XTT assay is based on a spectrophotometric assay of the metabolic conversion of tetrazolium salts to formazan; living cells convert XTT to formazan, which can be measured spectrophotometrically. Results were expresses as a comparison of the lC50 (concentration of drug inhibiting 50% of the cells) of each agent in the presence and absence of clectroporation, and are presented in Table 1.
# prostate = test: Intraprostatic injection of Bleomycin with electroporation, tolerability, ECG and histology in dog; format: in vivo, male beagle dog
# Procedure: In order to evaluate the technical feasibility of intraprostatic injection of Bleomycin, the following study was performed. A male beagle dog with a prostate size of >2 cm in diameter was anesthetized, A midline laparotomy was performed, and the bladder and gut reflected to visualize the prostate gland. Under direct visual guidance, Bleomycin was injected into each of six sextants (base, mid, and apex of both the left and right sides) of the prostate. Four electroporation needles were then inserted transperineally under visual guidance to administer the electroporation cycles. […] The ECG was recorded during each of the electroporation pulse sequences. The first two sequences were conducted with the needles inserted into the prostate, through the perineum. Four additional sequences were recorded with the needles inserted directly into the muscles of the left hindlimb. Each of the pulse sequences produced stimulation artifacts on the recording of the ECG.
# The prostate was then excised and processed for histological evaluation.
# [2] = partition coefficient between octanol and water; cited from earlier work
# tumor cell = settings: cited from earlier work
# PC-3 cells [3] = test: PC-3 tumors in nude mice, intratumoral bleomycin with or without electroporation; format: in vivo, nude mice; human prostate tumor (PC-3) cells; settings: for death: deaths due to infighting
# Procedure: In order to examine the effect of electroporation on the effectiveness of chemotherapeutic agents in vivo, a nude mouse model was utilized. For these experiments, 0.1 ml of a matrigel solution (a serum-free solution consisting of one part matrigel diluted in four parts RPMI-1640) containing 5×10^6 PC-3 cells was implanted on the flank of nude mice. The tumors were allowed to grow until a tumor volume of […]. The mice were weighed and randomly divided into six groups as follows:
# Group 1: no chemotherapeutic agent, no electroporation
# Group 2: 0.5 unit Bleomycin, no electroporation
# Group 3: 0.5 units Bleomycin, 4 needle array, 0.65 cm, 942V, 4×100 μs pulses
# Group 4: 0.5 units Bleomycin, 6 needle array, 1.00 cm, 1130 V, 6×100 μs pulses
# Group 5: 0.5 units Bleomycin, 6 needle array, 0.50 cm, 559 V, 6×100 μs pulses
# Group 6: 0.5 units Bleomycin, 4 needle array, 0.87 cm, 1500V, 4×100 μs pulses
# In those animals which received Bleomycin, the chemotherapeutic agent (0.5 unit) was dissolved in 0.01 ml saline and injected intratumorally by "fanning." After 10±1 minutes, a Genetronics Medpulser™ device was used to pulse the tumors with a set of either 6 or 4-needle array electrodes. All treatments were given as a single set of pulses.
# The animals were monitored daily for morality or any sign of disease for 67 days (see FIG. 24, where D=drug treatment (Bleomycin) and e=electroporation). Tumor size was measured and tumor volume calculated using the formula: […]
# wherein a, b, and c are the length, width, and depth of the tumor in mm.
# Following the monitoring period, the tumors were harvested and sections were prepared for histological analyses. Animals were classified as having progressive disease (appearance of new lesions not previously identified or having an estimated increase of 25% or more in existent lesion size), a complete response (complete disappearance of all known disease, a partial response (wherein the tumor size decrease 50% or more). Deaths were noted to be due to infighting of mice in the same cage.
# [4] = during electroporation pulse sequences
compound,measurement,setting,value
CO[C@@]12[C@H](COC(N)=O)C3=C(C(=O)C(C)=C(N)C3=O)N1C[C@@H]1N[C@@H]12 [Mitomycin C],IC50,"PC-3 cells [1]; Homo sapiens, PC-3, 20 h, read-out: IC50 no electroporation",80 µM
same,IC50,"PC-3 cells [1]; Homo sapiens, PC-3, 20 h, read-out: IC50 with electroporation",60 µM
same,cytotoxicity enhancement ratio,PC-3 cells [1],1.33
same,"cytotoxic enhancement, rank order",PC-3 cells [1],followed by Cisplatin and Mitomycin C
Bleomycin,"ECG, electrical rhythm of the heart",prostate; [4],no effect on the electrical rhythm of the heart
same,clinical disturbances of the cardiac rhythm,prostate; [4],no clinical disturbances of the cardiac rhythm were observed
same,muscular contractions,prostate; during the electroporation pulses,muscular contractions were observed
same,acute local or adverse reactions,prostate; intraprostatic Bleomycin plus electroporation,No acute local or adverse reactions
same,injection site finding,"prostate; intraprostatic Bleomycin plus electroporation, persisted for the duration of the study",Small hematomas were evident at the injection site
same,"gross examination of prostate, perineum and surrounding tissues",prostate; one hour after electroporation,no findings except for the hematomas on the prostate surface
same,necrosis of epithelial cells in the glandular portion of the prostate,prostate; one hour after electroporation,Necrosis occurred in the epithelial cells
same,necrosis of the supporting stroma,prostate; one hour after electroporation,No necro-sis of the supporting stroma was observed
same,histological tissue findings in the prostate gland,"prostate; one hour after electroporation, multifocal in distribution pattern","hemorrhage, edema, and necrosis, which were mild in severity"
same,log P,[2],very negative
same,diffusion into a tumor cell,tumor cell,diffuse very slowly into a tumor cell
same,penetration of the membranes of certain cancer cells,tumor cell; without electroporation,normally cannot penetrate the membranes of certain cancer cells effectively
same,Progressive disease,"PC-3 cells [3]; Group 2: 0.5 unit Bleomycin, no electroporation, 6 animals, 67 days",100%
same,partial response,"PC-3 cells [3]; Group 3: 0.5 units Bleomycin, 4 needle array, 0.65 cm, 942V, 4×100 μs pulses, 1 of 7 animals, 67 days",14%
same,death,"PC-3 cells [3]; Group 3: 0.5 units Bleomycin, 4 needle array, 0.65 cm, 942V, 4×100 μs pulses, 1 of 7 animals",14%
same,complete response,"PC-3 cells [3]; Group 3: 0.5 units Bleomycin, 4 needle array, 0.65 cm, 942V, 4×100 μs pulses, 5 of 7 animals, 67 days",52%
same,partial response,"PC-3 cells [3]; Group 4: 0.5 units Bleomycin, 6 needle array, 1.00 cm, 1130 V, 6×100 μs pulses, 1 of 7 animals, 67 days",14%
same,death,"PC-3 cells [3]; Group 4: 0.5 units Bleomycin, 6 needle array, 1.00 cm, 1130 V, 6×100 μs pulses, 1 of 7 animals",14%
same,complete response,"PC-3 cells [3]; Group 4: 0.5 units Bleomycin, 6 needle array, 1.00 cm, 1130 V, 6×100 μs pulses, 5 of 7 animals, 67 days",52%
same,partial response,"PC-3 cells [3]; Group 5: 0.5 units Bleomycin, 6 needle array, 0.50 cm, 559 V, 6×100 μs pulses, 1 of 6 animals, 67 days",17%
same,complete response,"PC-3 cells [3]; Group 5: 0.5 units Bleomycin, 6 needle array, 0.50 cm, 559 V, 6×100 μs pulses, 5 of 6 animals, 67 days",83%
same,partial response,"PC-3 cells [3]; Group 6: 0.5 units Bleomycin, 4 needle array, 0.87 cm, 1500V, 4×100 μs pulses, 1 of 8 animals, 67 days",12%
same,death,"PC-3 cells [3]; Group 6: 0.5 units Bleomycin, 4 needle array, 0.87 cm, 1500V, 4×100 μs pulses, 2 of 8 animals",25%
same,complete response,"PC-3 cells [3]; Group 6: 0.5 units Bleomycin, 4 needle array, 0.87 cm, 1500V, 4×100 μs pulses, 5 of 8 animals, 67 days",63%
same,cytotoxicity enhancement ratio,PC-3 cells [1],1000
same,cell susceptibility with electroporation,PC-3 cells [1],electroporation enhances cell susceptibility
same,"cytotoxic enhancement, rank order",PC-3 cells [1],highest cytotoxic enhancement
N.N.[Cl][Pt][Cl] [Cisplatin],cell susceptibility with electroporation,PC-3 cells [1],electroporation enhances cell susceptibility
same,IC50,"PC-3 cells [1]; read-out: IC50 no electroporation, no electroporation, 20 hours after treatment",50 µM
same,IC50,"PC-3 cells [1]; read-out: IC50 with electroporation, with electroporation, 6 pulses, 99 μs, 400-600 V, 0.5 cm needle array, 20 hours after treatment",10 µM
